Measured values reported in patent publication US11186560B2, “Arthropod repellent chemicals” (The Regents of the University of California, priority 2015, dated 2021).

Legend:
[1] = system: Drosophila melanogaster; assay: Drosophila melanogaster T-maze assay; assay type: in vivo; conditions: compounds at 5% concentration; average of 3 trials; negative P.I. indicates repellency
Description: T-maze assay was used to test selected compounds. 4-7 day old starved wild-type flies of Drosophila melanogaster (20 males plus 20 females/trial) were tested. Under a chemical hood, 10 ul of solvent and 10 ul of test chemical were applied onto filter paper placed in control tubes and test tubes. The flies were loaded into the elevator of a T-maze apparatus and lowered into position where they could make a choice between the solvent tube and the test chemical tube. After allowing flies to make choice for 1 minute in dark, the elevator was closed and number of flies in each tube was counted. Preference Index (P.I.)=(#flies in test arm−#flies in control arm)/(#flies in test arm+#flies in control arm). The results presented in Table 2 report the average Preference Index from 3 independent trials.

[2] = system: Aedes aegypti; assay: Aedes aegypti 2-choice landing assay (two-choice heat assay); assay type: in vivo; conditions: compounds at 3% concentration; female Aedes aegypti; two heat sources at 37 C. as attractants; 5 minute trial
Description: In order to test the compounds in mosquitoes, a Two-choice heat assay in Aedes aegypti was performed. A pair of heat sources were prepared using 2 hand warmers fitted into a 100×15 mm petri dish base and covered with 15×15 cm polyester netting secured round the petri dish by a pair or 8 inch plastic cable ties (Gardner Bender, Milwaukee, Wis.) coupling. Excess netting material was trimmed off round the edges of the petri dish. The treatment chemical 500 μl was added at 3% concentration directly onto the netting and the two assembled dishes were placed inside a cage of 20 female A. aegypti mosquitoes. Total numbers of mosquito landings on the net covering of each dish were counted during the assay from video recordings of the 5 minute trial. The solvent and DEET positions were alternated between runs.

[3] = system: Aedes aegypti; assay: Aedes aegypti 1-choice landing assay (heat source attractant); assay type: in vivo; conditions: compounds at 3% concentration; female Aedes aegypti; one heat source at 37 C. as attractant
[4] = system: mosquitoes; conditions: cited from earlier work
[5] = system: Drosophila melanogaster; assay: Drosophila melanogaster 2-choice trap assay; assay type: in vivo; conditions: compounds at 5% concentration; 48 hours; negative P.I. indicates repellency
Description: In a second type of assay, a Drosophila melanogaster 2-choice trap assay as described previously^4,6 was used with minor modifications. Traps were made with two 1.5 ml microcentrifuge tubes (USA Scientific) and 200 microliter pipette tips (USA Scientific), each cap contained standard cornmeal medium. T-shape piece of filter paper (Whatman #1) was impregnated with 5 ul of acetone (control) or 5 microliters of 5% test odor, diluted in acetone. Traps were placed within a petri dish (100×15 mm, Fisher) containing 10 ml of 1% agarose to provide moisture. Ten wild-type Drosophila melanogaster flies 4-7 days old were used per trial, which lasted 48 hours by which time point nearly all flies in the assays had made a choice and were counted. Preference Index (P.I.)=(number of flies in treated trap−number in control trap)/(number of flies in treated+control traps).

[6] = system: Aedes aegypti females; assay: Modified arm-in-cage assay; assay type: in vivo; conditions: 3% 4-methyl piperidine on filter paper adjoining netted landing window of glove
Text: FIG. […] (2a) Control and 4-MP treated gloves; (2b) Mean numbers of landings within minutes 2-5 of the assay. N=4 trials, ˜40 mosquitoes/trial.
The identification of these compounds started with understanding the biochemical, spacial charge density and other biochemical and physical factors aside from straight chemical structure for imparting the activity with existing DEET-like chemical structure and are therefore studying just DEET-like properties there were limits in finding completely novel classes of repellents that are not structurally related to DEET. Additional properties were then added. […] Olfactory avoidance to DEET is active over a short range (˜1 cm) and mosquitoes are not repelled beyond the immediate vicinity. Therefore, a modified arm-in-cage assay was developed where a low concentration of 4-MP can be applied to filter paper pieces adjoining the netted landing window of the glove (FIG. 2a). […]

CC1=CCC=CC1 [1-methyl-1,4-cyclohexadiene]
P.I. (mean preference index) [1]: −0.76
P.I. (mean preference index) [2]: −0.1584
Average % Repellency [3]: 27.01%

CC1CC=CCC1 (centres unmarked) [4-methyl cyclohexene]
P.I. (mean preference index) [2]: −0.8265
Average % Repellency [3]: 90.39%

CC1CCCO1 (centres unmarked) [2-methyl tetrahydrofuran]
P.I. (mean preference index) [2]: −0.1815
Average % Repellency [3]: 29.78%

CCN(CC)C(=O)c1cccc(C)c1 [DEET, N,N-Diethyl-m-toluamide]
Range over which olfactory avoidance is active [4]: ~1 cm

CC(C)CC1OCC(C)O1 (centres unmarked) [2-Isobutyl-4-methyl-1,3-dioxolane]
P.I. (mean preference index) [1]: −0.3
P.I. (mean preference index) [2]: −0.2189
Average % Repellency [3]: 35.92%

C1=COCCC1 [3.4-Dihydro-2H-pyran, 3,4-Dihydro-2H-pyran]
P.I. (mean preference index) [1]: −0.88

CC1=C(O)C(=O)C(C)O1 (centres unmarked) [4-Hydroxy-2,5-Dimethyl-3(2H)-Furanone]
P.I. (mean preference index) [5]: −0.24

c1ccc2c(c1)CCCN2 [1,2,3,4-Tetrahydroquinoline]
P.I. (mean preference index) [5]: −0.74
P.I. (mean preference index) [2]: −0.9965
Average % Repellency [3]: 99.82%

Isopropyl Quinoline
P.I. (mean preference index) [1]: −0.17
Average % Repellency [3]: 96.36%

CC1COC(C)(C)O1 (centres unmarked) [Propylene glycol acetone ketal]
P.I. (mean preference index) [1]: −0.09

C1=COCCC1 [Dihydropyran]
P.I. (mean preference index) [2]: −0.2819

CCC1=C(O)C(=O)CC1 [Ethyl cyclopentenolone]
P.I. (mean preference index) [2]: −0.7423
Average % Repellency [3]: 77.44%

CC1CCNCC1 [4-methyl piperidine]
Repellency from skin-exposed net window [6]: effectively repel mosquitoes

COC(=O)Cc1ccc(C(C)(C)C)cc1 [methyl 2-(4-tert-butylphenyl)acetate]
P.I. (mean preference index) [5]: −0.14

CCCCC1CO1 (centres unmarked) [1,2-Epoxyhexane]
P.I. (mean preference index) [1]: −0.2

CCN1CCCC1=O [1-Ethyl-2-pyrrolidone]
P.I. (mean preference index) [5]: −0.12
